Laboratory results reported in patent US20090036470A1, “PALIPERIDONE DERIVATIVES” (priority 2007, published 2009).

Experiment: Conversion of the compound (2) into paliperidone in acidic fluid (dissolution test of the Example 5 tablet in Simulated Gastric Fluid)
Assay type: physicochemical
Experimental: Conversion of the Compound (2) into Paliperidone in Acidic Fluid
A tablet of the following composition was prepared:
Compound (2), Prosolv HD-90 and low substituted hydroxypropylcellulose were mixed for 10 minutes at 22 rpm in a free fall mixer. The blend was forced sieved over a 250 micron sieve. The blend was then mixed for another 10 minutes in a free fall mixer at 22 rpm. The sodium stearyl fumarate was sieved over an 800 micron sieve and added to the blend. The blend was mixed for another 5 minutes at 22 rpm. Tablets were compressed on the Ek-0. Tablet mass was 100 mg, tablet hardness 30 N and the tablet diameter was 8 mm.
Determination of the dissolution assay at single point or dissolution profile was performed in Simulated Gastric Fluid (SGF) without pepsin (pH=1.2) with the paddle apparatus based on USP <711>, “Apparatus 2”. The dissolution samples were immediately neutralized to pH=7 upon sampling. The amount of paliperidone and compound (2) in the neutralized dissolution samples at the specified time point(s) was determined by HPLC at 280 nm.

Cc1nc2n(c(=O)c1CCN1CCC(c3noc4cc(F)ccc34)CC1)CCCC2OC1CCCCO1 (centres unmarked) [Compound (2)]
time for quantitative conversion into paliperidone (Simulated Gastric Fluid without pepsin, pH=1.2, USP paddle apparatus 2, from Example 5 tablet (10.8 mg compound (2)), HPLC at 280 nm, six vessel test, FIGS. 1 and 2): approx. 10 minutes | extent of conversion into paliperidone (acidic fluid, as shown in FIG. 1): quantitatively
